From the NIST ThermoML archive (doi:10.1016/j.fluid.2006.12.010)
± gives the expanded uncertainty stated by the source.

What was measured:
[1] = for mass density: 101.33 kPa
[2] = refractive index (Na D-line) (dimensionless); details: 101.33 kPa, Liquid, Standard Abbe refractometry

In the case of `Cc1ccccc1O` [2-methylphenol], the mass density ([1]; 298.15 K, Liquid) is reported as 1046 ± 1.8 kg/m3, the “vapor or sublimation pressure” value ([1]; 463.55 K, Liquid) is reported as 94.95 ± 5 kPa and the refractive index ([2]; 298.15 K) is reported as 1.5467 ± 0.0008.

For `Brc1ccccc1` [bromobenzene], the mass density ([1]; 293.15 K, Liquid) was 1488.2 ± 2.8 kg/m3, the “vapor or sublimation pressure” value ([1]; 426.85 K, Liquid) was 94.95 ± 5 kPa and the refractive index ([2]; 293.15 K) was 1.5571 ± 0.0008.

In the case of `CN(C)C=O` [dimethylformamide], the mass density ([1]; 293.15 K, Liquid) is reported as 948.7 ± 1.6 kg/m3, the “vapor or sublimation pressure” value ([1]; 424.15 K, Liquid) is reported as 94.95 ± 5 kPa and the refractive index ([2]; 293.15 K) is reported as 1.4305 ± 0.0008.

With `Cc1ccc(O)cc1` [4-methylphenol] the mass density ([1]; 298.15 K, Crystal) was 1154 ± 2.1 kg/m3, the “vapor or sublimation pressure” value ([1]; 475.35 K, Liquid) was 94.95 ± 5 kPa and the refractive index ([2]; 298.15 K) was 1.5391 ± 0.0008.

In the case of `Cc1cccc(O)c1` [3-methylphenol], the mass density ([1]; 298.15 K, Liquid) is reported as 1030 ± 1.8 kg/m3, the “vapor or sublimation pressure” value ([1]; 473.55 K, Liquid) is reported as 94.95 ± 5 kPa and the refractive index ([2]; 298.15 K) is reported as 1.5395 ± 0.0008.

In the case of `O=[N+]([O-])c1ccccc1` [nitrobenzene], the mass density ([1]; 298.15 K, Liquid) is reported as 1198 ± 2.2 kg/m3, the “vapor or sublimation pressure” value ([1]; 481.15 K, Liquid) is reported as 94.95 ± 5 kPa and the refractive index ([2]; 298.15 K) is reported as 1.55 ± 0.0008.
